The values that follow come from PubChem BioAssay AID652058 (Broad Institute, 2013).

Results filed as inconclusive are left out.

This experiment relates to HeLa Env/CEM cell fusion, luciferase, 16-24 h. As to the kind of experiment: ZM109 Env clade C HIV-1 fusion inhibitors, dose response, HeLa effector, CEM target cells, luciferase, cherry-pick (AID 652058).

Take `O=C(C[C@H]1C[C@H]2c3cc(NC(=O)c4ccc5c(c4)OCO5)ccc3O[C@H]2[C@H](CO)O1)NCc1ccc(Oc2ccccc2)cc1`: the AC50 (in general, the midpoint of the concentration-response curve, whichever way the signal moves) was 13.7 µM.
